Patent publication US9049858B2, “Pest controlling composition and method for controlling pest” (SUMITOMO CHEMICAL COMPANY, LIMITED, priority 2010, dated 2015)

Tested on: gray mold fungus (Botrytis cinerea)
Test: Cucumber leaf disk preventive test against gray mold fungus
Format: in vivo
Settings: 15° C., six days
Experimental: True leaf of cucumber was punched out with cork borer to 13 mm in diameter to prepare a leaf disk. In 24 well microwell plate that was dispensed with 1 ml 0.8% water agar, the leaf disk was placed such that the upper side of the leaf was in an upward direction. […] Control where 20 micro liter ion-exchange water was spread was prepared (for non-treated group). After confirming that the spray solution was dried, conidium of gray mold fungus (Botrytis cinerea) was suspended into potato dextrose broth (DIFCO) in a density, of about 10^5 conidia/mL and was then subjected to a spray inoculation. After leaving to stand the leaf disk in a growth chamber set up at 15° C. for six days, an onset area on each leaf was measured and a preventive value was then calculated by the following equation 1.
The same above operations were carried out using spinetoram or spinosad instead of abamectin, so as to obtain the respective preventive values. Preventive value(%)=100×(A−B)/A (Equation 1)
A: an onset area rate of plant belonging to non-treated group
B: an onset area rate of plant belonging to treated group onset area rate=(onset area of the leaf disk)/(the total area of the leaf disk)
The same above operations as described in Test Examples 1 to 6 were carried out using emamectin-benzoate, lepimectin or milbemectin instead of abamectin, so as to obtain the respective preventive values. […]

## CNC(=O)C(OC)c1ccccc1COc1cc(C)ccc1C (centres unmarked) [the present amide compound]
The present amide compound alone 1.0 ppm (dimethyl sulfoxide solution)
  preventive value (%): 46%
The present amide compound alone 2.5 ppm (dimethyl sulfoxide solution)
  preventive value (%): 56%
